Where “and” joins values, the source holds several entries; their conditions need not be identical. Equal values may be shown once. Toxic doses and inconclusive results are not listed. Rule for the calls: active = survival T/C of 150% or more; inactive = T/C below 125% in these data.
Tested on: P388 leukemia ip, CD2F1 mice, survival T/C
Assay: NCI In Vivo Anticancer Drug Screen. Data for tumor model P388 Leukemia (intraperitoneal) in CD2F1 (CDF1) mice
Settings: endpoint: median survival time, higher = longer survival
Method in brief: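 Mice carrying the transplanted tumor received test compound or vehicle. Survival was recorded in each group, and the value is the treated-group measurement divided by that of the vehicle-treated control group.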

[1] = dose: 50.0 mg/kg/injection, schedule: Q01DX009 (ip), vehicle: saline
[2] = dose: 100.0 mg/kg/injection, schedule: Q01DX009 (ip), vehicle: saline
[3] = dose: 200.0 mg/kg/injection, schedule: Q01DX009 (ip), vehicle: saline
[4] = dose: 400.0 mg/kg/injection, schedule: Q01DX009 (ip), vehicle: saline
[5] = dose: 50.0 mg/kg/injection, schedule: Q01DX009 (ip), vehicle: Klucel (hydroxypropylcellulose) (HPC)
[6] = dose: 100.0 mg/kg/injection, schedule: Q01DX009 (ip), vehicle: Klucel (hydroxypropylcellulose) (HPC)
[7] = dose: 200.0 mg/kg/injection, schedule: Q01DX009 (ip), vehicle: Klucel (hydroxypropylcellulose) (HPC)

Measured: T/C

N#C[C@H](OC1OC(COC2OC(CO)C(O)C(O)C2O)C(O)C(O)C1O)c1ccccc1 (some centres undefined)
inactive: dose: 6.25 mg/kg/injection, schedule: Q01DX009 (oral), vehicle: water 91 % of control | dose: 12.5 mg/kg/injection, schedule: Q01DX009 (oral), vehicle: saline 98 % of control | dose: 12.5 mg/kg/injection, schedule: Q01DX009 (oral), vehicle: water 95 % of control | dose: 25.0 mg/kg/injection, schedule: Q01DX009 (ip), vehicle: saline 100 % of control | dose: 25.0 mg/kg/injection, schedule: Q01DX009 (ip), vehicle: water 105 % of control | dose: 25.0 mg/kg/injection, schedule: Q01DX009 (oral), vehicle: saline 115 % of control | dose: 25.0 mg/kg/injection, schedule: Q01DX009 (oral), vehicle: water 93 % of control | [1] 100 % of control and 112 % of control | dose: 50.0 mg/kg/injection, schedule: Q01DX009 (ip), vehicle: water 97 % of control | dose: 50.0 mg/kg/injection, schedule: Q01DX009 (oral), vehicle: saline 118 % of control | dose: 50.0 mg/kg/injection, schedule: Q01DX009 (oral), vehicle: suspension in saline 104 % of control | dose: 50.0 mg/kg/injection, schedule: Q01DX009 (oral), vehicle: water 96 % of control | [2] 104 % of control and 107 % of control | dose: 100.0 mg/kg/injection, schedule: Q01DX009 (ip), vehicle: water 100 % of control | dose: 100.0 mg/kg/injection, schedule: Q01DX009 (oral), vehicle: saline 101 % of control | dose: 100.0 mg/kg/injection, schedule: Q01DX009 (oral), vehicle: suspension in saline 100 % of control and 107 % of control | dose: 100.0 mg/kg/injection, schedule: Q01DX009 (oral), vehicle: water 105 % of control and 93 % of control | [3] 100 % of control and 109 % of control | dose: 200.0 mg/kg/injection, schedule: Q01DX009 (ip), vehicle: water 101 % of control | dose: 200.0 mg/kg/injection, schedule: Q01DX009 (oral), vehicle: saline 100 % of control | dose: 200.0 mg/kg/injection, schedule: Q01DX009 (oral), vehicle: water 102 % of control and 104 % of control | [4] 102 % of control and 109 % of control | dose: 400.0 mg/kg/injection, schedule: Q01DX009 (ip), vehicle: water 100 % of control | dose: 400.0 mg/kg/injection, schedule: Q01DX009 (oral), vehicle: suspension in saline 100 % of control | dose: 800.0 mg/kg/injection, schedule: Q01DX009 (ip), vehicle: saline 102 % of control and 108 % of control | dose: 800.0 mg/kg/injection, schedule: Q01DX009 (ip), vehicle: water 102 % of control

C=CCN(CC=C)c1nc(N)nc(N)n1
inactive: [1] 96 % of control | [2] 90 % of control | [3] 121 % of control

C=C1C(=O)OC2C1CCC1(C)CC(Br)C(=O)C(C)C21 (centres undefined)
inactive: dose: 50.0 mg/kg/injection, schedule: Q04DX002 (ip), vehicle: saline with Tween-80 104 % of control and 108 % of control and 95 % of control | dose: 100.0 mg/kg/injection, schedule: Q04DX002 (ip), vehicle: saline with Tween-80 100 % of control and 111 % of control and 112 % of control | dose: 200.0 mg/kg/injection, schedule: Q04DX002 (ip), vehicle: saline with Tween-80 106 % of control and 108 % of control | dose: 400.0 mg/kg/injection, schedule: Q04DX002 (ip), vehicle: saline with Tween-80 104 % of control

CC[C@@H]1CN2CCc3c([nH]c4ccccc34)[C@@](C(=O)OC)(c3cc4c(cc3OC)N(C)[C@H]3[C@@](O)(C(=O)OC)[C@H](OC(C)=O)[C@]5(CC)C=CCN6CC[C@]43[C@@H]65)C[C@H](C2)C1=O
inactive: dose: 1.0 mg/kg/injection, schedule: Q01DX001 (ip), vehicle: water 104 % of control | dose: 2.0 mg/kg/injection, schedule: Q01DX001 (ip), vehicle: water 108 % of control | dose: 4.0 mg/kg/injection, schedule: Q01DX001 (ip), vehicle: distilled water + Tween-80 119 % of control | dose: 4.0 mg/kg/injection, schedule: Q01DX001 (ip), vehicle: water 120 % of control | dose: 8.0 mg/kg/injection, schedule: Q01DX001 (ip), vehicle: distilled water + Tween-80 117 % of control | dose: 16.0 mg/kg/injection, schedule: Q01DX001 (ip), vehicle: distilled water + Tween-80 119 % of control

CC1=CCC2CN(CCN(C)C)CC2C1 (centres undefined)
inactive: dose: 50.0 mg/kg/injection, schedule: Q01DX005 (ip), vehicle: saline with Tween-80 100 % of control | dose: 100.0 mg/kg/injection, schedule: Q01DX005 (ip), vehicle: saline with Tween-80 99 % of control

O=S(=O)(Cc1ccccc1)CS(=O)(=O)Cc1ccccc1
inactive: [5] 104 % of control | [6] 106 % of control | [7] 103 % of control | dose: 400.0 mg/kg/injection, schedule: Q01DX009 (ip), vehicle: Klucel (hydroxypropylcellulose) (HPC) 101 % of control

Cc1nc2cncnc2n(CCN2CCOCC2)c1=O
inactive: dose: 60.0 mg/kg/injection, schedule: Q01DX005 (ip), vehicle: Klucel (hydroxypropylcellulose) (HPC) 98 % of control | dose: 120.0 mg/kg/injection, schedule: Q01DX005 (ip), vehicle: Klucel (hydroxypropylcellulose) (HPC) 95 % of control | dose: 240.0 mg/kg/injection, schedule: Q01DX005 (ip), vehicle: Klucel (hydroxypropylcellulose) (HPC) 96 % of control

O=P(N1CCCC1)(N1CCCC1)N1CCCC1
inactive: [1] 100 % of control | [2] 102 % of control and 107 % of control | [3] 101 % of control | [4] 103 % of control

CC(C)(C)c1cc(Cc2ccccc2)c(O)c(C(C)(C)C)c1
inactive: dose: 50.0 mg/kg/injection, schedule: Q01DX005 (ip), vehicle: distilled water + alcohol 100 % of control | dose: 100.0 mg/kg/injection, schedule: Q01DX005 (ip), vehicle: distilled water + alcohol 103 % of control | dose: 200.0 mg/kg/injection, schedule: Q01DX005 (ip), vehicle: distilled water + alcohol 111 % of control

CSC(/C=N\O)=N/O
inactive: [5] 88 % of control | [6] 106 % of control | [7] 109 % of control

COC(=O)C(C)(O)C(C)C1CO1 (centres undefined)
inactive: dose: 50.0 mg/kg/injection, schedule: Q01DX005 (ip), vehicle: saline 98 % of control | dose: 100.0 mg/kg/injection, schedule: Q01DX005 (ip), vehicle: saline 101 % of control | dose: 200.0 mg/kg/injection, schedule: Q01DX005 (ip), vehicle: saline 121 % of control

O=C(Nc1ccc(S(=O)(=O)F)cc1)/C(=C/c1ccc([N+](=O)[O-])cc1)c1ccccc1
inactive: dose: 60.0 mg/kg/injection, schedule: Q01DX005 (ip), vehicle: saline with Tween-80 102 % of control | dose: 120.0 mg/kg/injection, schedule: Q01DX005 (ip), vehicle: saline with Tween-80 97 % of control

C=C(C)/C([O-])=N/[N+](C)(C)CC(O)CCCCCCCCCCCC (centres undefined)
inactive: dose: 1.25 mg/kg/injection, schedule: Q01DX009 (ip), vehicle: Klucel (hydroxypropylcellulose) (HPC) 104 % of control | dose: 2.5 mg/kg/injection, schedule: Q01DX005 (ip), vehicle: Klucel (hydroxypropylcellulose) (HPC) 100 % of control | dose: 2.5 mg/kg/injection, schedule: Q01DX009 (ip), vehicle: Klucel (hydroxypropylcellulose) (HPC) 96 % of control | dose: 5.0 mg/kg/injection, schedule: Q01DX005 (ip), vehicle: Klucel (hydroxypropylcellulose) (HPC) 101 % of control | dose: 10.0 mg/kg/injection, schedule: Q01DX005 (ip), vehicle: Klucel (hydroxypropylcellulose) (HPC) 100 % of control | dose: 10.0 mg/kg/injection, schedule: Q01DX009 (ip), vehicle: Klucel (hydroxypropylcellulose) (HPC) 91 % of control | dose: 20.0 mg/kg/injection, schedule: Q01DX005 (ip), vehicle: Klucel (hydroxypropylcellulose) (HPC) 101 % of control | dose: 40.0 mg/kg/injection, schedule: Q01DX005 (ip), vehicle: Klucel (hydroxypropylcellulose) (HPC) 92 % of control

COc1ccc(NC2=NCCS2)cc1
inactive: dose: 50.0 mg/kg/injection, schedule: Q04DX003 (ip), vehicle: saline with Tween-80 100 % of control | dose: 100.0 mg/kg/injection, schedule: Q04DX003 (ip), vehicle: saline with Tween-80 100 % of control | dose: 200.0 mg/kg/injection, schedule: Q04DX003 (ip), vehicle: saline with Tween-80 100 % of control

From PubChem BioAssay AID330 (DTP/NCI, 2004)
